Test results as given in patent US11447486B2, “2-amino-benzimidazole derivatives and their use as 5-lipoxygenase and/or prostaglandin E synthase inhibitors” (INSTITUT PASTEUR KOREA, priority 2014, dated 2022).

Tests used:
[1] = target: T1, human 5-LOX (Homo sapiens, UniProt P09917); test: 5-LOX enzyme activity, fluorescence method (5-HPETE, H2DCFDA); format: biochemical; conditions: read-out: 5-LO (IC50)
T1 construct: purchased Cayman 60402; host or cells: insect cells (lysate)
T1 sequence (P09917 1-674): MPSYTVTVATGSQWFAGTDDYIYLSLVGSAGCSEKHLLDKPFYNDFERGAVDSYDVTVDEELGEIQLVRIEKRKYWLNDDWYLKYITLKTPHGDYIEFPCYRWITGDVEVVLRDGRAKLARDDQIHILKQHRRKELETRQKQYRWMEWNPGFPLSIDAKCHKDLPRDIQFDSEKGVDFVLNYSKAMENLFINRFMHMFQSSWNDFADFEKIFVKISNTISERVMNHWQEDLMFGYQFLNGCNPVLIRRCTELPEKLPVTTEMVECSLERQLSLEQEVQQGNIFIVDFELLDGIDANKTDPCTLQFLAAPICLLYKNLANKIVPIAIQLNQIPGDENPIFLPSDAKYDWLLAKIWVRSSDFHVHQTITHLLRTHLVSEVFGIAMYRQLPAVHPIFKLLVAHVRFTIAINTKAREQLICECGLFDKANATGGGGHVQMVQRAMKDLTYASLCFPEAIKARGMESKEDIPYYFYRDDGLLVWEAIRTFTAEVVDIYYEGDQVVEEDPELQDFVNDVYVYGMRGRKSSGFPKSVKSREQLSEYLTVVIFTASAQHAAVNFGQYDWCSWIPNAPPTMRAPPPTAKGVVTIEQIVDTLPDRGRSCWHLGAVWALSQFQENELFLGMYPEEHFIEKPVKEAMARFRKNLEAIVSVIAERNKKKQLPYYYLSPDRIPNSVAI
Method: The activity of compounds against 5-LOX were determined by measuring LTB4 (leukotriene B4) levels and/or by a fluorescence method. Both approaches are outlined in more detail below;
The compound, in a dose response manner(0.5 nM to 10 uM), and enzyme mixture was pre-incubated for 5 minutes, and the enzymatic reaction was initiated by addition of ATP and arachidonic acid to a final concentration of 100 uM and 3 uM, respectively. […] All steps were carried out at room temperature.

[2] = test system: Rat basophilic leukemia (RBL) cells; test: LTB4 secretion assay in RBL (rat basophilic leukemia cells); format: cell-based; conditions: Rattus norvegicus, RBL
Method: Rat basophilic leukemia (RBL) cells (ATCC, Cat #CRL-2256) were maintained in EMEM (ATCC, Cat #30-2003) supplemented with 15% FBS. The day before RBL assay, cells were seeded at a concentration of 2×10^4 cells per well in 96-well plates. The media was replaced with 100 ul of EMEM supplemented with 0.5% FBS and compounds in dose response(5 nM to 100 uM) were added. After 15 min of pre-incubation at 37° C., arachidonic acid and calcium ionophore (A23187) were added to give a final concentration of 2.5 uM and 5 uM, respectively. After a further 10 min incubation at 37° C., culture supernatant was transferred and quantification of LTB4 was done with a Leukotriene B4 EIA kit (Cayman, Cat #520111) as instructed.

Row | IC50 [1] [µM] | EC50 [2] [µM] | SMILES
1 | < 1 | < 10 | Nc1ccc2nc(N)n(Cc3ccc(Oc4nc5ccccc5o4)cc3)c2c1 [Compound 246]
2 | < 1 | > 20 | Cc1ccc(Oc2ccc(CNc3nc4ccc(NC5COC5)cc4n3C)cc2)nn1 [Compound 312]
3 | < 1 | < 10 | NC(=O)CNc1nc2ccc(N)cc2n1Cc1ccc(Oc2ccc(Cl)cc2)cc1 [Compound 217]
4 | < 1 | < 10 | COc1ccc(Oc2ccc(CNc3nc4ccc(N)cc4n3C)cc2)nc1 [Compound 330]
5 | < 1 | < 10 | Cn1c(NCc2ccc(Oc3ncc(OC(F)(F)F)cn3)cc2)nc2ccc(N)cc21 [Compound 410]
6 | < 1 | < 10 | Cn1ccc(Nc2ccc3nc(NCc4ccc(Oc5ncc(Cl)cn5)cc4)[nH]c3c2F)n1 [Compound 480]
7 | < 1 | < 10 | Cn1c(NCc2ccc(Oc3ccc4ccc(Cl)cc4n3)cc2)nc2ccc(N)cc21 [Compound 419]
8 | < 1 | < 10 | Nc1ccc2nc(N)n(Cc3ccc(OCc4ccc(Cl)cn4)cc3)c2c1 [Compound 254]
9 | > 10 | < 10 | CCn1c(NCc2ccc(Oc3ccc(Cl)cn3)cc2)nc2ccc(Nc3cc(C(F)(F)F)n(C)n3)cc21 [Compound 511]
10 | 1 to 10 | > 20 | Cn1c(NCc2ccc(Oc3ncc(Cl)cn3)cc2)nc2ccc(NC3C[S+]([O-])C3)cc21 (centres unmarked) [Compound 386]
11 | < 1 | < 10 | CN(C)c1nc2ccc(NCc3ccc(N(Cc4ncc[nH]4)c4ccc(F)cc4)cc3)cc2[nH]1 [Compound 216]
12 | < 1 | 10 to 20 | Nc1ccc2[nH]c(NCc3ccc(N4CCOC(COc5ccc(OC(F)(F)F)cc5)C4)nc3)nc2c1 (centres unmarked) [Compound 222]
13 | < 1 | 10 to 20 | Cn1c(NCc2ccc(Oc3ncc(Cl)cc3Cl)cc2)nc2ccc(N)cc21 [Compound 321]
14 | < 1 | < 10 | Nc1ccc2nc(N)n(Cc3ccc(Oc4ccc(Cl)cn4)c(F)c3)c2c1 [Compound 248]
15 | < 1 | < 10 | CCn1c(NCc2ccc(Oc3ncc(C(F)(F)F)cn3)cc2)nc2ccc(NC3COC3)cc21 [Compound 548]
16 | < 1 | 10 to 20 | Nc1nc2ccc(N3CCC(Oc4ccc(OC(F)(F)F)cc4)C3)cc2[nH]1 (centres unmarked) [Compound 63]
17 | < 1 | < 10 | Cn1c(NCc2ccc(Oc3ccc(C(F)(F)F)nc3)cc2)nc2ccc(N)cc21 [Compound 223]
18 | < 1 | < 10 | CCOC(=O)CN(c1ccc(F)cc1)c1ccc(CNc2ccc3nc(N(C)C)[nH]c3c2)cc1 [Compound 185]
19 | < 1 | < 10 | Cn1c(NCc2ccc(Oc3ncc(Cl)cn3)cc2)nc2ccc(NCC(O)c3ccc(F)cc3)cc21 (centres unmarked) [Compound 372]
20 | < 1 | < 10 | Clc1ccc(OC(CNc2nc3ccc(NC4COC4)cc3[nH]2)c2ccccc2)cc1 (centres unmarked) [Compound 180]
21 | < 1 | < 10 | Cn1c(NCc2ccc(Oc3nc4cc(Cl)ccc4o3)cc2)nc2ccc(NC3COC3)cc21 [Compound 403]
22 | < 1 | < 10 | Cn1c(NCc2ccc(Oc3ccc(Cl)cc3)cn2)nc2ccc(N)cc21 [Compound 297]
23 | 1 to 10 | > 20 | Nc1cnc2nc(N3CCCC3)n(CCOc3ccc(OC(F)(F)F)cc3)c2c1 [Compound 83]
24 | 1 to 10 | < 10 | Cn1c(NC2(c3ccc(Oc4ncc(Cl)cn4)cc3)CC2)nc2ccc(N)cc21 [Compound 472]
25 | < 1 | < 10 | Cn1c(NCc2ccc(Oc3ncc(Cl)cn3)cc2)nc2ccc(NC3CSC3)cc21 [Compound 366]
26 | < 1 | 10 to 20 | Nc1ccc2[nH]c(NCc3ccc(F)cc3)nc2c1 [Compound 28]
27 | < 1 | < 10 | Cn1c(NCc2ccc(Oc3nc4cc(Cl)ccc4o3)cc2)nc2ccc(N)cc21 [Compound 402]
28 | < 1 | < 10 | Cn1c(NCc2ccc3c(ccn3-c3ccc(Cl)cn3)c2)nc2ccc(NC3COC3)cc21 [Compound 457]

Row | IC50 [1] [µM] | EC50 [2] [µM] | SMILES
29 | < 1 | < 10 | Cn1c(NCc2ccc(Oc3ccc4ccc(Cl)cc4n3)cc2)nc2ccc(NC3COC3)cc21 [Compound 420]
30 | 1 to 10 | < 10 | CC(C)(C)Nc1nc2cc(N)ccc2n1CC(=O)Nc1ccc(OC(F)(F)F)cc1 [Compound 69]
31 | < 1 | < 10 | Cc1cnc(Oc2ccc(CNc3nc4ccc(NC5COC5)cc4n3C)cc2)nc1 [Compound 349]
32 | < 1 | < 10 | CN(C)c1nc2cc(NCc3ccc(-c4ncco4)cc3)ccc2[nH]1 [Compound 220]
33 | > 10 | < 10 | Cn1c(NCc2ccc(Oc3ncc(Cl)cc3Cl)cc2)nc2ccc(NC3COC3)cc21 [Compound 322]
34 | 1 to 10 | > 20 | FC(F)(F)Oc1ccc(OCCn2c(N3CCCC3)nc3cc(N4CCC4)ccc32)cc1 [Compound 85]
35 | < 1 | < 10 | CN1CCN(CCNc2ccc3nc(NCc4ccc(Oc5ccc(Cl)cn5)cc4)n(C)c3c2)CC1 [Compound 333]
36 | < 1 | < 10 | Nc1ccc2nc(N)n(Cc3ccc(Oc4ccc(Cl)cn4)c(Cl)c3)c2c1 [Compound 255]
37 | < 1 | 10 to 20 | O=S(=O)(c1ccc(Cl)cc1)c1ccc(CNc2nc3cc(NC4COC4)ccc3[nH]2)cc1 [Compound 133]
38 | < 1 | < 10 | CC(c1ccc(Oc2ccc(Cl)cn2)cc1)n1c(N)nc2ccc(N)cc21 (centres unmarked) [Compound 247]
39 | < 1 | < 10 | COc1cc(Oc2ccc(Cl)cn2)ccc1CNc1nc2ccc(N)cc2n1C [Compound 327]
40 | < 1 | < 10 | Cc1ccc(Oc2ccc(CNc3nc4ccc(NC5COC5)cc4n3C)cc2)nc1 [Compound 353]
41 | < 1 | < 10 | Cn1c(NCc2ccc(Oc3ccc(Cl)cn3)cc2)nc2ccc(NCCc3ccccn3)cc21 [Compound 329]
42 | < 1 | < 10 | Cn1c(NCc2ccc(Oc3ncc(-c4ccc(Cl)cc4)cn3)cc2)nc2ccc(N)cc21 [Compound 460]
43 | < 1 | < 10 | Cn1c(NCc2ccc(Oc3ncc(Cl)c4ccccc34)cc2)nc2ccc(N)cc21 [Compound 399]
44 | > 10 | 10 to 20 | Cn1c(NCc2ccc(Oc3ncc(Cl)cn3)cc2)nc2ccc(NC(N)=O)cc21 [Compound 429]
45 | > 10 | < 10 | CCC(Nc1nc2ccc(Nc3cc(C(F)(F)F)n(C)n3)cc2n1C)c1ccc(Oc2cnc(C(F)(F)F)cn2)cc1 (centres unmarked) [Compound 522]
46 | > 10 | > 20 | CCN(CC)c1nc2cc(N)ccc2n1CCc1ccc(F)cc1 [Compound 47]
47 | < 1 | < 10 | Cn1c(NCc2ccc(Oc3ncc(Cl)c(C4CC4)n3)cc2)nc2ccc(N)cc21 [Compound 397]
48 | < 1 | < 10 | Cc1cc(Oc2ccc(Cl)cn2)ccc1CNc1nc2ccc(N)cc2n1C [Compound 290]
49 | < 1 | < 10 | Nc1ccc2nc(NCCC(F)(F)F)n(Cc3ccc(Oc4ccc(Cl)cc4)cc3)c2c1 [Compound 264]
50 | < 1 | < 10 | Cn1nc(CF)cc1Nc1ccc2nc(NCc3ccc(Oc4ncc(Cl)cn4)cc3)n(C)c2c1 [Compound 539]
51 | < 1 | < 10 | Cn1c(NCc2ccc(Oc3ccc(Cl)cn3)cc2)nc2ccc(NC(C)(C)C(=O)O)cc21 [Compound 326]
52 | < 1 | > 20 | COC(c1ccc(CNc2nc3ccc(N)cc3[nH]2)cc1)c1ccccn1 (centres unmarked) [Compound 181]
53 | < 1 | > 20 | Nc1cc(Cl)c2nc(N3CCCC3)n(CCOc3ccc(OC(F)(F)F)cc3)c2c1 [Compound 89]
54 | > 10 | < 10 | CN(C)c1nc2cc(Nc3ccn(C)n3)ccc2n1CCOc1ccc(OC(F)(F)F)cc1 [Compound 46]
55 | < 1 | < 10 | Cn1c(NCc2ccc(Oc3ncc(Cl)cn3)cc2F)nc2ccc(N)cc21 [Compound 380]
